Results reported in US8415469B2, “Compounds and methods for kinase modulation, and indications therefor” (Plexxikon Inc., priority 2005, dated 2013).

What was measured:
Format in all cases: biochemical
Kit = target: T1, Kit (Homo sapiens, UniProt P10721); experiment: AlphaScreen kinase assay, Kit; settings: read-out: IC50, activity toward kinase Kit
T1 construct: P1332.N6 BI PTP KIT M552-K948-X COD; His6 (N); made in house; host or cells: E. coli (PTP1B co-expressed)

Fms = target: T2, Fms (Homo sapiens, UniProt P07333); experiment: AlphaScreen kinase assay, Fms; settings: read-out: IC50, activity toward kinase Fms
T2 construct: purchased Upstate Biotechnology
T2 sequence (P07333 20-972): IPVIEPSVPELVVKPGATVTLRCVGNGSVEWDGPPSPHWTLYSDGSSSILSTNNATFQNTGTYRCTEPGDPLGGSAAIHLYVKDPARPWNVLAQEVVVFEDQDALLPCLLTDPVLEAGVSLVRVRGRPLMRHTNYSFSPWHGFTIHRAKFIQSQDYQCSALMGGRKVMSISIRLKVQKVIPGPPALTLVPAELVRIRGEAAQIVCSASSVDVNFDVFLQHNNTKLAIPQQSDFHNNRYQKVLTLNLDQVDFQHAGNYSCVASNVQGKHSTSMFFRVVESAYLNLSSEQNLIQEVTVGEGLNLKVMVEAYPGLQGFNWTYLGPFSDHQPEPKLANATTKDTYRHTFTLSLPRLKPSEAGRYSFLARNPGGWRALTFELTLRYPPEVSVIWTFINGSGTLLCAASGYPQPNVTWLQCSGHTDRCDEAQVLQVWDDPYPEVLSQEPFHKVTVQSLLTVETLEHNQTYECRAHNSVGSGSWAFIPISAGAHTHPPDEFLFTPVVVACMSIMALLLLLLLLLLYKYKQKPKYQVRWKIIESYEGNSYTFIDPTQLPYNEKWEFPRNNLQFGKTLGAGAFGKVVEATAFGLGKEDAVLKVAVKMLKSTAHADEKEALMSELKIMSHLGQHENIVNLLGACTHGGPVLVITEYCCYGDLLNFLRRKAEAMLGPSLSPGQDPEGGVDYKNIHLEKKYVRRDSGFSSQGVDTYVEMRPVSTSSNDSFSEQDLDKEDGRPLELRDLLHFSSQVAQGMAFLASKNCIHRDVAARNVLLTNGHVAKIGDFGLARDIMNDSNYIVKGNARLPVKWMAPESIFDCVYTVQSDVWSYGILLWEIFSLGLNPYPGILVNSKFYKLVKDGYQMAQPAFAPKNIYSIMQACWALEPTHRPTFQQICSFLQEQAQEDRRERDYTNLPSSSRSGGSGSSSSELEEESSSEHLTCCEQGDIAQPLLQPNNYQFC

Akt3 = Akt3 (Homo sapiens, UniProt Q9Y243); experiment: AlphaScreen kinase assay, Akt3; settings: read-out: IC50, activity toward kinase Akt3
Akt3, sequence (Q9Y243 whole entry): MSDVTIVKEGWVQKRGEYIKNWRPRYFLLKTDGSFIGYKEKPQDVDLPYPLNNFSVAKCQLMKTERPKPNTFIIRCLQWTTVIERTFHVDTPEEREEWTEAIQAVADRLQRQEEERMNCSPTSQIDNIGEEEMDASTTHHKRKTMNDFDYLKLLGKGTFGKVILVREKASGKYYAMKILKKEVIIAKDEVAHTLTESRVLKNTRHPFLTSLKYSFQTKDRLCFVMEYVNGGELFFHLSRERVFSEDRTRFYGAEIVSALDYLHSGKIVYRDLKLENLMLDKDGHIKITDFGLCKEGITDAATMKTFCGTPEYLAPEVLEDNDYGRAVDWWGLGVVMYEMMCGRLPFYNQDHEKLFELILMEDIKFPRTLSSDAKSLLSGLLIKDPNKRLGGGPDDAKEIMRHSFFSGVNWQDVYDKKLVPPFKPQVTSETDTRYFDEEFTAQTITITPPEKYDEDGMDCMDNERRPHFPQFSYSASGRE
How it was run: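 Stock 20 mM compound in DMSO, diluted 1:3 serially to 8 final concentrations. Kinase phosphorylates biotinylated peptide; donor (streptavidin) and acceptor (anti-phospho antibody) beads then associate. Reduced acceptor emission indicates inhibition.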

Src = target: T3, Src (Homo sapiens, UniProt P12931); experiment: AlphaScreen kinase assay, Src; settings: read-out: IC50, activity toward kinase Src
T3 construct: P1144. pET-N6 BI-PTP SRC V86-L536-X; made in house
T3 sequence (P12931 with tags, fused parts or gaps): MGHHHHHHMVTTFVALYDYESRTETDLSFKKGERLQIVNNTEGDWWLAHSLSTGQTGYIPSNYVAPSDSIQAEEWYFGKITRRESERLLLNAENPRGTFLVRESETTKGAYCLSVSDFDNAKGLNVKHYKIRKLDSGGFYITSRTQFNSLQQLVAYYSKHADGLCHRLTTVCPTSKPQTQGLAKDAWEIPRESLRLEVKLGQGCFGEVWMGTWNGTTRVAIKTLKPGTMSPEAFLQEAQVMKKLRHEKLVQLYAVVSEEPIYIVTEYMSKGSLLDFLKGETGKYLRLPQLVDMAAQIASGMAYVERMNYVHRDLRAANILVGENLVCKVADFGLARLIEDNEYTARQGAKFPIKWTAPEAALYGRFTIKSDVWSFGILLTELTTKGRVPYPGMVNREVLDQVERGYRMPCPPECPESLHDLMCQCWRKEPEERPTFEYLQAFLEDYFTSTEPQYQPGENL

EphB2 = target: T4, EphB2 (Homo sapiens, UniProt P29323); experiment: Z'-Lyte FRET kinase assay (Invitrogen), EphB2; settings: read-out: IC50, activity toward kinase EphB2
T4 construct: purchased Invitrogen (assay run by Invitrogen)
T4 sequence (P29323 19-1055): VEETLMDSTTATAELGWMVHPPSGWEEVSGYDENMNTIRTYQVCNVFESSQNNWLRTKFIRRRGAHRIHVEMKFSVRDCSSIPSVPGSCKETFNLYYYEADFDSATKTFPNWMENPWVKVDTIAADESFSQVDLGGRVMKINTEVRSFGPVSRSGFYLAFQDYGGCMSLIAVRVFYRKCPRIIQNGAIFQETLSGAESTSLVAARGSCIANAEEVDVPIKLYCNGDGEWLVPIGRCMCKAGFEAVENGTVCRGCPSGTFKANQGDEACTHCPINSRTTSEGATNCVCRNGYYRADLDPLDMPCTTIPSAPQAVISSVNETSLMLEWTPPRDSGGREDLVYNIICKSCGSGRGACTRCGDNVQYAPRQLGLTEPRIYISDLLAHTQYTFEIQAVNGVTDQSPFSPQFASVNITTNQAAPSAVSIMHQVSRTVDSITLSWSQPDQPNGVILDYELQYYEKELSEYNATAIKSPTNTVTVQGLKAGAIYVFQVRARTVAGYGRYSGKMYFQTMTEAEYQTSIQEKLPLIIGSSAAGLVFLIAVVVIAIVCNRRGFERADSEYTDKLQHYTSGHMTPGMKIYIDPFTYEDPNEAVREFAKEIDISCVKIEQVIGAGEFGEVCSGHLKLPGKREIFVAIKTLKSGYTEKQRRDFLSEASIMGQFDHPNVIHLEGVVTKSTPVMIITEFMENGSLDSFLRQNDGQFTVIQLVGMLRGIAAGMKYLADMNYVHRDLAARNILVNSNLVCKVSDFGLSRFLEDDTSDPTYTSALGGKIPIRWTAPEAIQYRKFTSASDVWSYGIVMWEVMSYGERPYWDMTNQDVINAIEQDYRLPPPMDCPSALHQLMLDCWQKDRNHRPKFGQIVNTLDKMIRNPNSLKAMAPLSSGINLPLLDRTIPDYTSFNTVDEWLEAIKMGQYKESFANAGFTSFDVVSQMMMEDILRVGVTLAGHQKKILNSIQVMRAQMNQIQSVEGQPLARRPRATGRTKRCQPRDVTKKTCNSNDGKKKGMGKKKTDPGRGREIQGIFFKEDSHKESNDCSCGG
How it was run: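 10 μM ATP, 2 μM peptide, 1% DMSO final; HEPES pH 7.5 buffer with MgCl2/EGTA/BRIJ-35. Kinase rxn 1 h RT, protease development 1 h RT, stop, read donor/acceptor ratio. Compound titrated.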

Measured: IC50

T1 sequence (P10721 with tags, fused parts or gaps): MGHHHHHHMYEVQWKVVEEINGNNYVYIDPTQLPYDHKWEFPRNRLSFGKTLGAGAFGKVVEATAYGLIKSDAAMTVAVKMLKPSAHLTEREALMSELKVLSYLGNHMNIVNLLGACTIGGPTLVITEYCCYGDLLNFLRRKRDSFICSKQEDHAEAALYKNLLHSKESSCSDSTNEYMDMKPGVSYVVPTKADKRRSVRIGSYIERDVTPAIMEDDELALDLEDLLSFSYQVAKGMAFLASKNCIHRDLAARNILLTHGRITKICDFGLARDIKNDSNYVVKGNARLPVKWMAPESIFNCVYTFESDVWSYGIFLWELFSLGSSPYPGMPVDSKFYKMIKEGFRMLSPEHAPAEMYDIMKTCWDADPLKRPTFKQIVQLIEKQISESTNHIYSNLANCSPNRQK

Cc1c(O)cccc1C(=O)c1c[nH]c2ncc(-c3cccnc3)cc12 [Compound P-0006, (3-Hydroxy-2-methyl-phenyl)-(5-pyridin-3-yl-1H-pyrrolo[2,3b]pyridin-3-yl)-methanone]
≤ 10 µM: all assays above

CC(=O)Nc1cccc(-c2cnc3[nH]cc(C(=O)c4cccc(O)c4F)c3c2)c1 [Compound P-0035, N-{3-[3-(2-Fluoro-3-hydroxy-benzoyl)-1H-pyrrolo[2,3-b]pyridin-5-yl]-phenyl}-acetamide]
≤ 10 µM: all assays above

CC(=O)Nc1cccc(-c2cnc3[nH]cc(C(=O)c4cc(O)ccc4F)c3c2)c1 [Compound P-0001]
≤ 10 µM: all assays above

CS(=O)(=O)Nc1cccc(-c2cnc3[nH]cc(C(=O)c4cccc(O)c4F)c3c2)c1 [Compound P-0038, N-{3-[3-(2-Fluoro-3-hydroxy-benzoyl)-1H-pyrrolo[2,3-b]pyridin-5-yl]-phenyl}-methanesulfonamide]
≤ 10 µM: all assays above

O=C(c1ccc(O)cc1Cl)c1c[nH]c2ncccc12 [Compound P-0021]
≤ 10 µM: all assays above

NC(=O)c1cccc(-c2cnc3[nH]cc(C(=O)c4cccc(O)c4F)c3c2)c1 [Compound P-0034, 3-[3-(2-Fluoro-3-hydroxy-benzoyl)-1H-pyrrolo[2,3-b]pyridin-5-yl]benzamide]
≤ 10 µM: all assays above
